Reference: patent publication US20200216416A1, “QUINOLINE COMPOUNDS AS INHIBITORS OF TAM AND MET KINASES” (Array BioPharma Inc., priority 2019, published 2020)

Tests used:
[1] = target: T1, His-tagged recombinant human AXL cytoplasmic domain (Homo sapiens, UniProt P30530); test: AXL Enzyme Assay (LanthaScreen Eu Kinase Binding); details: averaged IC50; 60-minute incubation at 22° C.; TR-FRET
T1 construct: His-tagged recombinant human AXL cytoplasmic domain
T1 sequence (P30530 473-894 limits assumed): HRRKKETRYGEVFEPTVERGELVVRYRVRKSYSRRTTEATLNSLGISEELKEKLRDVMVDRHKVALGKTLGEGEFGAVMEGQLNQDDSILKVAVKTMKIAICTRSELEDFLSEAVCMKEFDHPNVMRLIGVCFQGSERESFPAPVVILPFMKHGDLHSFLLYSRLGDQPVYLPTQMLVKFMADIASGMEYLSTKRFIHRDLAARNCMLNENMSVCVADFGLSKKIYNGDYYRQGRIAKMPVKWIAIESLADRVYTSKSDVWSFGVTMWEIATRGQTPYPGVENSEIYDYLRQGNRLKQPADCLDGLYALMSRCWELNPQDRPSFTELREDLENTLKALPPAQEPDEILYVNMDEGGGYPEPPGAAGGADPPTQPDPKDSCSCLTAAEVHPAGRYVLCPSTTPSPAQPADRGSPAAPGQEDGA
Method: (§1) Compounds disclosed herein were screened for their ability to inhibit AXL kinase using Invitrogen's LanthaScreen™Eu Kinase Binding technology. His-tagged recombinant human AXL cytoplasmic domain was incubated with 20 nM Alexa-Fluor® Tracer 236 (PR9078A), 2 nM biotinylated anti-His (Cat. No. M4408), and 2 nM europium-labeled Streptavidin (Cat. No. PV5899) along with test compound in a buffer consisting of 25 mM HEPES, pH 7.4, 10 mM MgCl2, 0.01% Triton X-100, and 2% DMSO. Compounds were typically prepared in a threefold serial dilution in DMSO and added to the assay to give the appropriate final concentration. After a 60-minute incubation at 22° C., the reaction was measured using a PerkinElmer EnVision multimode plate reader via TR-FRET dual wavelength detection, and the percent of control (POC) was calculated using a ratiometric emission factor. […] The POC values are fit to a 4 parameter logistic curve and the IC50 value is point where the curve crosses 50 POC.

[2] = target: T2, GST-tagged recombinant human TYRO3 kinase domain (Homo sapiens, UniProt Q06418); test: TYRO3 Enzyme Assay (LanthaScreen Eu Kinase Binding); details: averaged IC50; TYRO3 5 nM; 60-minute incubation at 22° C.; TR-FRET
T2 construct: GST-tagged recombinant human TYRO3 kinase domain; purchased Carna PR7480A
T2 sequence (Q06418 518-790 limits assumed): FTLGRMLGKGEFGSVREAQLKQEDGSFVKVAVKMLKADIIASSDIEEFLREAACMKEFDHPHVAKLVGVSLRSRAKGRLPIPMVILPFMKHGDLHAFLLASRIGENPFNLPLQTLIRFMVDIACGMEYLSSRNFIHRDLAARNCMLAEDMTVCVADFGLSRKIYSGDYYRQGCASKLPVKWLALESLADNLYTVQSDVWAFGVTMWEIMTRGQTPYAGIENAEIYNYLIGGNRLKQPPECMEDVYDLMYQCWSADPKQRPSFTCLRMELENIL
Method: Compounds disclosed herein were screened for their ability to inhibit TYRO3 kinase using Invitrogen's LanthaScreenTM Eu Kinase Binding technology. GST-tagged recombinant human TYRO3 kinase domain from Carna (5 nM; Cat. No. P[…]) was incubated with 20 nM Alexa-Fluor® Tracer 236 (P[…]) and 2 nM Europium-anti-GST (Cat. No. A15116) along with test compound in a buffer consisting of 25 mM HEPES, pH 7.4, 10 mM MgCl2, 0.01% Triton X-100, and 2% DMSO. Compounds are typically prepared in a threefold serial dilution in DMSO and added to the assay to give the appropriate final concentration. After a 60-minute incubation at 22° C., the reaction was measured using a PerkinElmer EnVision multimode plate reader via TR-FRET dual wavelength detection, and the percent of control (POC) calculated using a ratiometric emission factor. […] The POC values were fit to a 4 parameter logistic curve and the IC50 value is point where the curve crosses 50 POC.

[3] = target: T3, His-tagged recombinant human MER cytoplasmic domain (Homo sapiens, UniProt Q12866); test: MER Enzyme Assay (LanthaScreen Eu Kinase Binding); details: averaged IC50; MER 5 nM; 60-minute incubation at 22° C.; TR-FRET
T3 construct: His-tagged recombinant human MER cytoplasmic domain
T3 sequence (Q12866 527-999 limits assumed): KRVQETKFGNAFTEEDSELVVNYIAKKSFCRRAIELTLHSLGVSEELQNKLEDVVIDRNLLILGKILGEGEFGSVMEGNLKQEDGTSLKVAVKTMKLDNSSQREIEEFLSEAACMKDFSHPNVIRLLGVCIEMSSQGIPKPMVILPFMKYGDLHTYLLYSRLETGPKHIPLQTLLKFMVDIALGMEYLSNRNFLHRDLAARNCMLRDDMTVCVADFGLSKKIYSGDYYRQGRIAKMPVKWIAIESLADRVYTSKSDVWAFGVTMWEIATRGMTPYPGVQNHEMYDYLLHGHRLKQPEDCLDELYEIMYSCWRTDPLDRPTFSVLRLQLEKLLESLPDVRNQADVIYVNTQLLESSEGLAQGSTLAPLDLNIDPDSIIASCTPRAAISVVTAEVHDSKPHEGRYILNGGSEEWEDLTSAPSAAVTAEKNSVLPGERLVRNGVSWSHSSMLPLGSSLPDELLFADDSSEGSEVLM
Method: as §1, with “human MER” for “human AXL”, “domain (5 nM)” for “domain”, “mM MgCl 2,” for “mM MgCl2,”

COc1ccc2nccc(Oc3ccc(NC(=O)c4cn(C(C)C)cc(-c5ccc(F)cc5)c4=O)nc3)c2c1 [Example 40, 5-(4-fluorophenyl)-1-isopropyl-N-(5-((6-methoxyquinolin-4-yl)oxy)pyridin-2-yl)-4-oxo-1,4-dihydropyridine-3-carboxamide]
IC50 [1]: 6 nM | IC50 [2]: 19 nM | IC50 [3]: 19 nM
